Data set [1] has as its system Leishmania donovani LV9 intramacrophage amastigotes. The data set is described as follows: In vitro anti-leishmanial testing on intramacrophage amastigotes (RAW 264.7, Sybr Green I). In kind it is cell-based. As to conditions: for SI = CC50/IC50 Intramacro. Amas.: CC50 RAW 264.7 / IC50 intramacrophage amastigotes; for IC50: Leishmania donovani, RAW264.7, RAW 264.7 macrophages, 48 h treatment. As to the method: (§1) Leishmania donovani promastigotes (MHOM/ET/67/HU3/LV9) were cultured with 5% CO2 in M199 complete medium containing M199 medium supplemented with 100 μM adenosine, 0.5 mg/L hemin, 40 mM Hepes pH 7.4 and 10% heat inactivated fetal bovine serum (HIFBS) in the dark at 26 °C. Late log promastigotes diluted at 1 × 10^6/mL in M199 complete medium acidified at pH 5.5 and cultured at 37 °C with 5% CO2 provided the cultures of axenic amastigotes of L. donovani.
(§2) RAW 264.7 macrophages were grown with 5% CO2 in DMEM complete medium containing Dulbecco’s Modified Eagle’s Medium (DMEM) with 100 U/mL penicillin-streptomycin, and 10% HIFBS at 37 °C.
For intramacrophage amastigote testing, RAW 264.7 macrophages were incubated with 5% CO2 at 37 °C for 24 h after being plated in 96-well microplates at a density of 2 × 10^4 cells per well. Axenic amastigotes were differentiated as described above, centrifuged at 2000 g for 10 min, re-suspended in DMEM complete medium, and added to each well to reach a 16:1 parasite to macrophage ratio. 24 h of infection with 5% CO2 at 37 °C proceeded, and extracellular parasites were removed. This was followed by addition to each well of DMEM complete medium (100 μL) containing two-fold serial dilutions of the compounds from a maximal concentration of 100 μM. The medium was removed following treatment of 48 h and replaced by Direct PCR Lysis Reagent (100 μL; Euromedex) before 3 freeze-thaw cycles at room temperature, addition of 50 μg/mL proteinase K, and a final incubation at 55 °C overnight to allow cell lysis. 10 μL of each cell extract was then added to 40 μL of Direct PCR Lysis reagent containing Sybr Green I (0.05%; Invitrogen). Mastercycler® realplex (Eppendorf) was used to monitor DNA fluorescence. Compound activity was expressed as IC50 (µM). The drug used for reference was Amphotericin B (AmB).

The subject of data set [2] is Leishmania donovani LV9 axenic amastigotes. Nature of the data set: In vitro anti-leishmanial testing on axenic amastigotes (resazurin). In kind it is cell-based. As to conditions: then resazurin 24 h. As to the method: as §1
Previously described protocols were adapted for evaluation of compounds on L. donovani. For axenic amastigotes, two-fold serial dilutions of the compounds were done in 96-well microplates with 100 μL of complete medium (see above). Axenic amastigotes were then added to each well at a density of […] in a 200 μL final volume. After 72 h of incubation with 5% CO2 at 37 °C, 20 μL of resazurin (450 μM) was added to each well and further incubated with 5% CO2 at 37 °C for 24 h in the dark. Resazurin is reduced to resorufin in living cells and can be then monitored by measuring OD570nm (resorufin) and OD600nm (resazurin; Lab systems Multiskan MS). Compound activity was expressed as IC50 (µM). The drug used for reference was Amphotericin B (AmB).
For orientation: Resazurin is reduced to fluorescent resorufin, in cell work by metabolically active cells.

Data set [3] in a line: Cytotoxicity test on macrophages (resazurin). In kind it is cell-based. To be noted: mouse, RAW 264.7 macrophages, 48 h incubation. The method, then: as §2
(§3) RAW 264.7 macrophages were used for cytotoxicity testing. Cells were plated in 96-well microplates at a density of 2 × 10^4 cells per well. Twenty-four hours of incubation with 5% CO2 at 37 °C followed, and then the medium was removed and to each well, 100 μL of DMEM complete medium containing two-fold serial dilutions of the compounds were added. This was followed by 48 h of incubation with 5% CO2 at 37 °C, after which 10 μL of resazurin (450 μM) was added to each well, and further incubated with 5% CO2, in the dark for 4 h at 37 °C. Cell viability was then monitored as above. Compound cytotoxicity was expressed as CC50 (Cytotoxic Concentration 50%: concentration inhibiting the macrophages growth by 50%).

Data set [4] concerns Leishmania donovani LV9 axenic amastigotes. Nature of the data set: In vitro anti-leishmanial testing on axenic amastigotes (resazurin). In kind it is cell-based. To be noted: against Leishmania axenic amastigotes (as worded).
A further data set deals with RAW 264.7 macrophages. Nature of the data set: Cytotoxicity test on macrophages (resazurin). The data set is classed as cell-based. To be noted: as defined. The method, then:
as §2, §3

The subject of the next data set is Leishmania. The arrangement: method as in PMID 18353643. As to conditions: read-out: IC50 of reference drug miltefosine; cited from earlier work.
The mark [5] stands for this setting: Table 3, read-out: Leishmania donovani LV9 Intramacrophage Amastigotes IC50 ± SD.
The mark [6] stands for this setting: Table 2, read-out: Leishmania donovani Intramacrophage Amastigotes Forms IC50 ± SD.
Where [7] appears, read: Table 2, 72 h incubation, read-out: Leishmania donovani LV9 axenic Amastigotes Forms IC50 ± SD.
Setting [8] is: Table 2, read-out: Toxicity on RAW 264.7 Macrophages CC50 ± SD.

Read-outs that look alike come from different tables or passages of the source.

Turning to `C[C@@H]1[C@H](O)[C@@H](C)/C=C/C=C/C=C/C=C/C=C/C=C/C=C/[C@H](O[C@@H]2O[C@H](C)[C@@H](O)[C@H](N)[C@@H]2O)C[C@@H]2O[C@](O)(C[C@@H](O)C[C@@H](O)[C@H](O)CC[C@@H](O)C[C@@H](O)CC(=O)O[C@H]1C)C[C@H](O)[C@H]2C(=O)O` [AmB, Amphotericin B, reference compound], the “SI = CC50/IC50 Intramacro. Amas.” value in data set [1] was 48.7. Moreover, the IC50 in data set [1] (setting [5]) was 0.11 ± 0.09 µM; in data set [2] (Table 3, 72 h incubation, read-out: Leishmania donovani LV9 Axenic Amastigotes IC50 ± SD), 0.2 ± 0.08 µM. For the same compound, the CC50 at 48 h in data set [3] (Table 3, read-out: Cytotoxicity on RAW 264.7 Macrophages CC50 ± SD) came out at 5.36 ± 0.52 µM.

On to `O=C(NN=Cc1ccc(Br)s1)c1cccs1` [Compound 2, N’-[(5-Bromo-2-thiophenyl)methylene]thiophene-2-carbohydrazide], for which the “SI = CC50/IC50 Intramacro. Amas.” value in data set [1] is listed as 2.2. Moreover, the results for the IC50 in data set [1] (setting [6]), in data set [1] (setting [5]) and in data set [2] (setting [7]) were 2.18 ± 0.01 µM, < 5 µM and 1.09 ± 0.12 µM, respectively. Further, in data set [4], the “selectivity index (SI)” value was 2. For the same compound, the CC50 at 48 h in data set [3] (setting [8]) is 4.87 ± 0.39 µM. Moreover, in the data set on RAW 264.7 macrophages, the “selectivity index (SI, CC50 for macrophage/IC50 for promastigotes)” value is given as ≥ 2.

As for `O=C(NN=Cc1nc2ccccc2s1)c1cccs1` [Compound 4, N’-[(2-Benzothiazolyl)methylene]thiophene-2-carbohydrazide], the melting point was in the range of 231 to 234 °C. Further, the “SI = CC50/IC50 Intramacro. Amas.” value in data set [1] came out at 1.4. The IC50 in data set [1] (setting [6]) is 11.2 ± 0.62 µM. The half-inhibitory concentration (IC50) in data set [2] (setting [7]) is 12.5 ± 0.61 µM. For the same compound, the cytotoxic concentration (CC50) at 48 h in data set [3] (setting [8]) was 16.3 ± 1.42 µM.

On to `COC(=O)c1cc(-c2nc3cc([N+](=O)[O-])ccc3[nH]2)n2ccc3ccccc3c12` [Compound 13, Methyl 3-(5-nitro-1H-benzo[d]imidazol-2-yl)pyrrolo[2,1-a]isoquinoline-1-carboxylate], for which the melting point was determined as 280 °C.

Take `COC(=O)c1c(C(=O)OC)c2c3ccccc3ccn2c1-c1nc2cc([N+](=O)[O-])ccc2[nH]1` [Compound 12, Dimethyl 3-(5-nitro-1H-benzo[d]imidazol-2-yl)pyrrolo[2,1-a]isoquinoline-1,2-dicarboxylate]: the melting point stood at 162 °C. The IC50 in data set [1] (setting [6]) is > 100 µM. Further, the IC50 in data set [2] (setting [7]) is > 100 µM. Also, the CC50 at 48 h in data set [3] (setting [8]) was > 100 µM.

Regarding `O=C(NN=Cc1nc2ccccc2s1)c1ccncc1` [Compound 5, N’-[(2-Benzothiazolyl)methylene]pyridine-4-carbohydrazide], the melting point lay within 234 to 237 °C. Moreover, the “SI = CC50/IC50 Intramacro. Amas.” value in data set [1] is given as >1.8. Also, in data set [1] (setting [6]), the IC50 came out at 55.2 ± 4.77 µM. Moreover, in data set [2] (setting [7]), the IC50 worked out at 61.5 ± 5.99 µM. In addition, the CC50 at 48 h in data set [3] (setting [8]) is > 100 µM.

For the compound `Cc1csc(C=NNC(=O)c2ccco2)n1` [Compound 1, N’-[(4-Methyl-2-thiazolyl)methylene]furan-2-carbohydrazide], the melting point was in the range of 121 to 124 °C. For the same compound, the “SI = CC50/IC50 Intramacro. Amas.” value in data set [1] came to 2.2. Besides, in data set [1] (setting [6]), the 50% inhibitory concentration (IC50) amounted to 6.25 ± 1.89 µM. Moreover, in data set [2] (setting [7]), the IC50 was determined as 11.9 ± 1.87 µM. Moreover, the cytotoxic concentration (CC50) at 48 h in data set [3] (setting [8]) stood at 13.9 ± 2.11 µM.

For `CCCCCCCCCCCCCCCCOP(=O)([O-])OCC[N+](C)(C)C` [miltefosine], the IC50 in the data set on Leishmania was 0.31 µM.

As for `COC(=O)c1c(C(=O)OC)c2ccccn2c1-c1nc2cc([N+](=O)[O-])ccc2[nH]1` [Compound 11, Dimethyl 3-(5-nitro-1H-benzo[d]imidazol-2-yl)indolizine-1,2-dicarboxylate], the melting point stood at 234 °C.

For the compound `NC(=NO)c1cccc([N+](=O)[O-])c1` [Compound 7, 3-Nitrobenzamidoxime], the melting point lay in the range of 182 to 184 °C. Also, in data set [1], the “SI = CC50/IC50 Intramacro. Amas.” value was >2.1. For the same compound, the IC50 in data set [1] (setting [6]) came to 47.2 ± 3.12 µM. Also, the IC50 in data set [2] (setting [7]) came to 51.2 ± 4.98 µM. In addition, in data set [3] (setting [8]), the CC50 at 48 h was > 100 µM.

In the case of `COCc1nc(-c2ccc3c(c2)OCO3)no1` [Compound 8], the melting point fell in the range of 56 to 57 °C. Further, the “SI = CC50/IC50 Intramacro. Amas.” value in data set [1] is >1.9. In data set [1] (setting [6]), the half-inhibitory concentration (IC50) was determined as 51.3 ± 4.35 µM. In addition, the 50% inhibitory concentration (IC50) in data set [2] (setting [7]) was determined as 59.9 ± 6.45 µM. In addition, in data set [3] (setting [8]), the CC50 at 48 h is > 100 µM.

For `O=C(NN=Cc1ccc(Br)s1)c1ccco1` [Compound 3, N’-[(5-Bromo-2-thiophenyl)methylene]furan-2-carbohydrazide], the melting point was 201 to 202 °C. Further, the IC50 in data set [1] (setting [6]) was > 100 µM. For the same compound, the IC50 in data set [2] (setting [7]) is > 100 µM. The CC50 at 48 h in data set [3] (setting [8]) is > 100 µM.

As a reminder, the IC50 is the concentration needed to halve the response being measured. As a reminder, the CC50 is the concentration at which the toxic effect on the cells reaches its halfway point. Usually melting point stands for the temperature of the solid-liquid transition.

The values above are taken from paper PMC6480966, “Synthesis, In Silico, and In Vitro Evaluation of Anti-Leishmanial Activity of Oxadiazoles and Indolizine Containing Compounds Flagged against Anti-Targets” (Molecules, 2019).
